Converted amounts (≈) assume the structure as drawn. Like-named read-outs stand apart in the source and are kept apart here.
How the values were obtained:
[1] = Effect of previously prepared solid HPβCD-polymer complexing agent on solubility (Example 13); type: physicochemical
Description: The resultant solutions were heated in sealed containers to 120° C. and maintained at that temperature for 30 minutes, then were lyophilized. The solids thus obtained were ground with a mortar and pestle.
The solid cyclodextrin/polymer products were reconstituted with water to afford solutions containing 9.88% (w/v) HPβCD and 0.12% (w/v) PVP, 0.12% (w/v) or CMC 0.12% (w/v) HPMC. The solubilities (S) of three drugs in these solutions and in an aqueous solution containing 10% (w/v) HPβCD without added polymer were then determined as follows:
An excess amount of each drug was added to each of the four cyclodextrin solutions and the solutions were sonicated in an ultrasonic bath for 3 hours, then allowed to equilibrate for 60 hours at room temperature (23° C.). […] However, by separate preparation of the cyclodextrin/polymer complexing agent as illustrated here, one can readily avoid heating drugs which are unstable at elevated temperature.

physchem = settings: aqueous 5% (w/v) γcd
[2] = Effect of PVP on the solubilization of drugs in aqueous HPβCD solutions (Example 7); settings: for S4 /S3: with vs without 0.25% PVP
[3] = Solubility of various drugs: effect of CMC in aqueous HPβCD solutions (Example 1); settings: for S4 /S3: 0.25% CMC + 10% HPβCD vs 10% HPβCD
[4] = 5% γCD
[5] = type: physicochemical
From the text: (2) The apparent stability constants of the drug -cyclodextrin complexes were increased when the polymers were present in the aqueous cyclodextrin complexation media in accord with the present invention. […];

[6] = ΔH, ΔS and stability constant (Kc) of drug-HPβCD MS 0.6 complexes, effect of PVP (Example 17); type: physicochemical; settings: HPβCD MS 0.6 complex
Description: (§1) The effect of polyvinylpyrrolidone (PVP) on the enthalpy (ΔH) and the entropy (ΔS) of the stability constant (Kc) of the drug-cyclodextrin complex was determined.
(§2) An excess amount of the drug was added to water containing 0, 0.1, 0.25 or 0.5% (w/v) PVP and various amounts of HPβCD or HPαCD.

[7] = for flux (F) through hairless mouse skin: 37° C., mean ± standard deviation, 4 times
[8] = Transdermal delivery of hydrocortisone in vitro, Franz diffusion cell (Example 15a); type: in vitro ADME, hairless mice; settings: 0.25% (w/v) PVP vs no PVP, at maximum, HPβCD about 12% w/v
Description: . Female hairless mice were sacrificed by cervical dislocation and their full-thickness skins were removed and placed in Franz diffusion cells of type FDC 400 15FF, diameter 1.5 cm (Vangard International Inc., USA), containing 12.3 ml receptor phase. The receptor phase consisted of phosphate buffer saline pH 7.4 containing 0.3% (w/v) Brij-58™ and 0.4% (v/v) formaldehyde and was stirred with a magnetic bar. The receptor chamber was kept at 37° C. by circulating water through an external jacket. […]. After equilibration for three days, 2.0 ml of the donor phase was applied to the skin surface (the stratum corneum) and the donor chamber covered with Parafilm™ (a paraffin-coated plastic film). Samples of the receptor phase were removed from the cells, at 12 hour intervals, for three days and replaced with fresh buffer solution. The samples were kept frozen until analyzed by HPLC. Each experiment was repeated at least three times. The results depicted in FIG. 4 are the mean values ± standard error of the mean (SE).

[9] = type: physicochemical; settings: HPαCD MS 0.6 complex
Description: as §1, §2

[10] = Dissolution of hydrocortisone from tablets, USP XXII paddle apparatus (Example 10); type: physicochemical; settings: 3 minutes, 37° C.
Description: After equilibration for 3 days at room temperature, the suspensions were filtered through 0.45 μm membrane filters, the tiltrates were lyophilized and the solid which formed was ground with a mortar and pestle. The amount of hydrocortisone incorporated into the HPβCD complex was determined by HPLC.
Individual disks of 200 mg hydrocortisone-HPβCD complex were compressed in a hydraulic press under vacuum and a force of 1×10^4 kg for 1.5 minutes using a 13 mm (diameter) IR potassium bromide pellet punch.
The dissolution studies were carried out using a USP XXII described paddle apparatus for dissolution rate determination. The release rate was determined at 37±1° C. and 100 rpm by adding one tablet to 900 ml of water. Samples were withdrawn at various time intervals, filtered through 0.45 membrane filters and analyzed by HPLC.

In the case of `NC(=O)N1c2ccccc2C=Cc2ccccc21` [Carbamazepine, carbamazepine], the solubility ([1]; 9.88% hpbetacd + 0.12% cmc, 9.88% (w/v) HPβCD and 0.12% (w/v) CMC, read-out: S3 solubility) is reported as 6660 µg/mL, the solubility ([1]; 9.88% hpbetacd + 0.12% hpmc, 9.88% (w/v) HPβCD and 0.12% (w/v) HPMC, read-out: S4 solubility) is reported as 9530 µg/mL and the solubility ([1]; 9.88% hpbetacd + 0.12% pvp, 9.88% (w/v) HPβCD and 0.12% (w/v) PVP, read-out: S2 solubility) is reported as 9800 µg/mL. For the same molecule, the solubility ([1]; 10% hpbetacd, 10% (w/v) HPβCD, read-out: S1 solubility) was 7000 µg/mL (≈ 29600 µM), the solubility (physchem) was 490 µg/mL (≈ 2070 µM) and the solubility at 72 h ([2]; 0.25% pvp, 10% hpβcd) was 7500 µg/mL (≈ 31700 µM). The solubility at 72 h ([2]; 10% hpβcd ms 0.7) was 6430 µg/mL (≈ 27200 µM), the solubility at 72 h ([2]; aqueous 0.25% pvp) was 310 µg/mL (≈ 1310 µM) and the solubility at 72 h ([2]; water) was 110 µg/mL (≈ 466 µM). The “S4 /S3” value [2] was 1.17, the “S4 /S3” value [3] was 1.31 and the solubility ([3]; 0.25% cmc + 10% hpbetacd) was 9200 µg/mL. It also gave a solubility ([3]; aqueous 0.25% cmc) of 200 µg/mL (≈ 846 µM), a solubility ([3]; aqueous 10% hpbetacd) of 7000 µg/mL (≈ 29600 µM) and a solubility ([3]; water) of 110 µg/mL (≈ 466 µM). For the same molecule, the “Scp /Sco” value ([4]; CMC) was 1.33, the “Scp /Sco” value ([4]; HPMC) was 2.27 and the “Scp /Sco” value ([4]; PVP) was 2.18.

In the case of `C[C@@H]1C[C@H]2[C@@H]3CCC4=CC(=O)C=C[C@]4(C)[C@@]3(F)[C@@H](O)C[C@]2(C)[C@@]1(O)C(=O)CO` [Dexamethasone, dexamethasone], the solubility at 72 h ([2]; 0.25% pvp, 10% hpβcd) is reported as 8000 µg/mL (≈ 20400 µM), the solubility at 72 h ([2]; 10% hpβcd ms 0.7) is reported as 7530 µg/mL (≈ 19200 µM) and the solubility at 72 h ([2]; aqueous 0.25% pvp) is reported as 330 µg/mL (≈ 841 µM). For the same molecule, the solubility at 72 h ([2]; water) was 260 µg/mL (≈ 662 µM), the “S4 /S3” value [2] was 1.06 and the “increase in apparent stability constant” value [5] was “about 26%”. The “S4 /S3” value [3] was 1.04, the solubility ([3]; 0.25% cmc + 10% hpbetacd) was 8750 µg/mL and the solubility ([3]; aqueous 0.25% cmc) was 330 µg/mL (≈ 841 µM). For the same molecule, the solubility ([3]; aqueous 10% hpbetacd) was 8430 µg/mL (≈ 21500 µM) and the solubility ([3]; water) was 260 µg/mL (≈ 662 µM).

In the case of `C[C@]12CCC(=O)C=C1CC[C@@H]1[C@@H]2[C@@H](O)C[C@@]2(C)[C@H]1CC[C@]2(O)C(=O)CO` [Hydrocortisone, hydrocortisone], the ΔH ([6]; PVP 0.00% w/v) is reported as -4.88 kcal/mol, the ΔS ([6]; PVP 0.00% w/v) is reported as -6.2 J mol^-1 K^-1 and the ΔH ([6]; PVP 0.10% w/v) is reported as -9.8 kcal/mol. For the same molecule, the ΔS ([6]; PVP 0.10% w/v) was -68.6 J mol^-1 K^-1, the ΔH ([6]; PVP 0.25% w/v) was -8.72 kcal/mol and the ΔS ([6]; PVP 0.25% w/v) was -56.4 J mol^-1 K^-1. The ΔH ([6]; PVP 0.50% w/v) was -9.27 kcal/mol, the ΔS ([6]; PVP 0.50% w/v) was -64.9 J mol^-1 K^-1 and the “flux (F) through hairless mouse skin” value ([7]; 6% (w/v) HPβCD MS 0.6 and 0.25% (w/v) PVP) was 0.158 ± 0.035 μm/cm^2 /h. The transdermal delivery ([7]; PVP-containing sample vs without PVP) was “over two times faster”, the “flux (F) through hairless mouse skin” value ([7]; aqueous 8% (w/v) HPβCD MS 0.6) was 0.075 ± 0.023 μm/cm^2 /h and the “flux increase with PVP” value [8] was “about 40%”. The ΔH ([9]; PVP 0.00% w/v) was -7.67 kcal/mol, the ΔS ([9]; PVP 0.00% w/v) was -70.2 J mol^-1 K^-1 and the ΔH ([9]; PVP 0.10% w/v) was -9.39 kcal/mol. For the same molecule, the ΔS ([9]; PVP 0.10% w/v) was -94.5 J mol^-1 K^-1, the ΔH ([9]; PVP 0.25% w/v) was -11.6 kcal/mol and the ΔS ([9]; PVP 0.25% w/v) was -124.2 J mol^-1 K^-1. The ΔH ([9]; PVP 0.50% w/v) was -8.53 kcal/mol, the ΔS ([9]; PVP 0.50% w/v) was -81.9 J mol^-1 K^-1 and the hydrocortisone dissolved ([10]; HPβCD complex formed without CMC, average of four) was 68.3%. It also gave a hydrocortisone dissolved ([10]; HPβCD complex with 0.1% (w/v) CMC) of 74.2% and a hydrocortisone dissolved ([10]; HPβCD complex with 0.25% (w/v) CMC) of 81.0%.
